Key:
Experiment in all cases: Test C preemergence
Assay type in all cases: in vivo
[1] = system: wheat (winter wheat, Triticum aestivum); settings: for Plant response rating, Wheat: scale 0 to 100, 0 no effect, 100 complete control
In short: (§1)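 Assessment: visual, 13–15 d after treatment, 0 (no effect) to 100 (complete control) relative to controls. Treatment: preemergence to seeds in loam-sand soil, or postemergence to 1- to 4-leaf plants in peat-based medium. Formulation: non-phytotoxic solvent mixture with surfactant.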

[2] = system: nutsedge, yellow (yellow nutsedge, Cyperus esculentus); settings: for Plant response rating, Nutsedge, Yellow: scale 0 to 100, 0 no effect, 100 complete control
In short: as §1

[3] = system: morningglory (Ipomoea coccinea); settings: for Plant response rating, Morningglory: scale 0 to 100, 0 no effect, 100 complete control
In short: as §1

corn (Zea mays) = settings: for Plant response rating, Corn: scale 0 to 100, 0 no effect, 100 complete control
In short: as §1

[4] = system: barnyardgrass (Echinochloa crus-galli); settings: for Plant response rating, Barnyardgrass: scale 0 to 100, 0 no effect, 100 complete control
In short: as §1

[5] = system: blackgrass (Alopecurus myosuroides); settings: for Plant response rating, Blackgrass: scale 0 to 100, 0 no effect, 100 complete control
In short: as §1

soybean (Glycine max) = settings: for Plant response rating, Soybean: scale 0 to 100, 0 no effect, 100 complete control
In short: as §1

[6] = system: Galium (catchweed bedstraw, Galium aparine); settings: for Plant response rating, Galium: scale 0 to 100, 0 no effect, 100 complete control
In short: as §1

[7] = system: johnsongrass (Sorghum halepense); settings: for Plant response rating, Johnsongrass: scale 0 to 100, 0 no effect, 100 complete control
In short: as §1

[8] = system: waterhemp (common waterhemp, Amaranthus rudis); settings: for Plant response rating, Waterhemp: scale 0 to 100, 0 no effect, 100 complete control
In short: as §1

[9] = system: pigweed (Amaranthus retroflexus); settings: for Plant response rating, Pigweed: scale 0 to 100, 0 no effect, 100 complete control
In short: as §1

[10] = system: ragweed (common ragweed, Ambrosia elatior); settings: for Plant response rating, Ragweed: scale 0 to 100, 0 no effect, 100 complete control
In short: as §1

[11] = system: crabgrass, large (large crabgrass, Digitaria sanguinalis); settings: for Plant response rating, Crabgrass, Large: scale 0 to 100, 0 no effect, 100 complete control
In short: as §1

[12] = system: velvetleaf (Abutilon theophrasti); settings: for Plant response rating, Velvetleaf: scale 0 to 100, 0 no effect, 100 complete control
In short: as §1

[13] = system: oilseed rape (Brassica napus); settings: for Plant response rating, Oilseed Rape: scale 0 to 100, 0 no effect, 100 complete control
In short: as §1

[14] = system: ryegrass, Italian (Italian ryegrass, Lolium multiflorum); settings: for Plant response rating, Ryegrass, Italian: scale 0 to 100, 0 no effect, 100 complete control
In short: as §1

[15] = system: foxtail, giant (giant foxtail, Setaria faberii); settings: for Plant response rating, Foxtail, Giant: scale 0 to 100, 0 no effect, 100 complete control
In short: as §1

[16] = 31 g ai/ha, 0 is no effect, 100 is complete control

CN1CC(c2cccc(C(F)(F)F)c2)C(C(=O)Nc2cccc(F)c2F)C1=O (centres unmarked) [Compound 636]
Plant response rating (scale of 0 to 100), Wheat [1, 16]: 35
Plant response rating, Wheat ([1]; 62 g ai/ha): 45
Plant response rating, Wheat ([1]; 125 g ai/ha): 65
Plant response rating, Wheat ([1]; 250 g ai/ha): 75
Plant response rating (scale of 0 to 100), Nutsedge, Yellow [2, 16]: 0
Plant response rating, Nutsedge, Yellow ([2]; 62 g ai/ha): 75
Plant response rating, Nutsedge, Yellow ([2]; 125 g ai/ha): 0
Plant response rating, Nutsedge, Yellow ([2]; 250 g ai/ha): 60
Plant response rating (scale of 0 to 100), Morningglory [3, 16]: 5
Plant response rating, Morningglory ([3]; 62 g ai/ha): 25
Plant response rating, Morningglory ([3]; 125 g ai/ha): 35
Plant response rating, Morningglory ([3]; 250 g ai/ha): 65
Plant response rating (scale of 0 to 100), Corn (corn (Zea mays); [16]): 60
Plant response rating, Corn (corn (Zea mays); 62 g ai/ha): 80
Plant response rating, Corn (corn (Zea mays); 125 g ai/ha): 85
Plant response rating, Corn (corn (Zea mays); 250 g ai/ha): 90
Plant response rating (scale of 0 to 100), Barnyardgrass [4, 16]: 90
Plant response rating, Barnyardgrass ([4]; 62 g ai/ha): 90
Plant response rating, Barnyardgrass ([4]; 125 g ai/ha): 95
Plant response rating, Barnyardgrass ([4]; 250 g ai/ha): 95
Plant response rating (scale of 0 to 100), Blackgrass [5, 16]: 90
Plant response rating, Blackgrass ([5]; 62 g ai/ha): 85
Plant response rating, Blackgrass ([5]; 125 g ai/ha): 90
Plant response rating, Blackgrass ([5]; 250 g ai/ha): 90
Plant response rating (scale of 0 to 100), Soybean (soybean (Glycine max); [16]): 0
Plant response rating, Soybean (soybean (Glycine max); 62 g ai/ha): 75
Plant response rating, Soybean (soybean (Glycine max); 125 g ai/ha): 0
Plant response rating, Soybean (soybean (Glycine max); 250 g ai/ha): 0
Plant response rating (scale of 0 to 100), Galium [6, 16]: 85
Plant response rating, Galium ([6]; 62 g ai/ha): 85
Plant response rating, Galium ([6]; 125 g ai/ha): 90
Plant response rating, Galium ([6]; 250 g ai/ha): 90
Plant response rating (scale of 0 to 100), Johnsongrass [7, 16]: 80
Plant response rating, Johnsongrass ([7]; 62 g ai/ha): 85
Plant response rating, Johnsongrass ([7]; 125 g ai/ha): 85
Plant response rating, Johnsongrass ([7]; 250 g ai/ha): 90
Plant response rating (scale of 0 to 100), Waterhemp [8, 16]: 65
Plant response rating, Waterhemp ([8]; 62 g ai/ha): 75
Plant response rating, Waterhemp ([8]; 125 g ai/ha): 85
Plant response rating, Waterhemp ([8]; 250 g ai/ha): 85
Plant response rating (scale of 0 to 100), Pigweed [9, 16]: 60
Plant response rating, Pigweed ([9]; 62 g ai/ha): 70
Plant response rating, Pigweed ([9]; 125 g ai/ha): 80
Plant response rating, Pigweed ([9]; 250 g ai/ha): 85
Plant response rating (scale of 0 to 100), Ragweed [10, 16]: 20
Plant response rating, Ragweed ([10]; 62 g ai/ha): 65
Plant response rating, Ragweed ([10]; 125 g ai/ha): 65
Plant response rating, Ragweed ([10]; 250 g ai/ha): 80
Plant response rating (scale of 0 to 100), Crabgrass, Large [11, 16]: 95
Plant response rating, Crabgrass, Large ([11]; 62 g ai/ha): 98
Plant response rating, Crabgrass, Large ([11]; 125 g ai/ha): 100
Plant response rating, Crabgrass, Large ([11]; 250 g ai/ha): 100
Plant response rating (scale of 0 to 100), Velvetleaf [12, 16]: 5
Plant response rating, Velvetleaf ([12]; 62 g ai/ha): 50
Plant response rating, Velvetleaf ([12]; 125 g ai/ha): 55
Plant response rating, Velvetleaf ([12]; 250 g ai/ha): 55
Plant response rating (scale of 0 to 100), Oilseed Rape [13, 16]: 80
Plant response rating, Oilseed Rape ([13]; 62 g ai/ha): 60
Plant response rating, Oilseed Rape ([13]; 125 g ai/ha): 85
Plant response rating, Oilseed Rape ([13]; 250 g ai/ha): 90
Plant response rating (scale of 0 to 100), Ryegrass, Italian [14, 16]: 70
Plant response rating, Ryegrass, Italian ([14]; 62 g ai/ha): 30
Plant response rating, Ryegrass, Italian ([14]; 125 g ai/ha): 50
Plant response rating, Ryegrass, Italian ([14]; 250 g ai/ha): 90
Plant response rating (scale of 0 to 100), Foxtail, Giant [15, 16]: 85
Plant response rating, Foxtail, Giant ([15]; 62 g ai/ha): 90
Plant response rating, Foxtail, Giant ([15]; 125 g ai/ha): 90
Plant response rating, Foxtail, Giant ([15]; 250 g ai/ha): 90

— US12077503B2, “Substituted cyclic amides and their use as herbicides” (FMC CORPORATION, priority 2015, dated 2024)
